Assay results from paper PMC6102577, “Discovery of Pyrazolo[4,3-c]quinolines Derivatives as Potential Anti-Inflammatory Agents through Inhibiting of NO Production” (Molecules : A Journal of Synthetic Chemistry and Natural …, 2018).
Like-named read-outs stand apart in the source and are kept apart here.

How the values were obtained:
[1] = system: LPS-stimulated NO production in RAW 264.7 cells; assay: Inhibition of LPS-induced NO production (nitrite accumulation, Griess reaction) in RAW 264.7 cells; format: cell-based; conditions: Mus musculus
Procedure: Treatment of Raw 264.7 cells with LPS (0.1 μg/mL) for 24 h induced NO production which were assessed by measuring the accumulation of nitrite, a stable metabolite of NO, in the media based on Griess reaction. […] However, compound 2a was also highly cytotoxic, in which the survival rate of RAW 264.7 cells was only 9% at a drug concentration of 10 μM. […] The position of substitution play an important role in which substitution at para-position is usually more favorable than its ortho- or meta- counterpart in the inhibitory activity on the LPS-induced NO production. […] Various substituted groups have been introduced on the para-position of the phenyl ring.
Raw 264.7 cells, purchased from Bioresource Collection and Research Center, Taiwan, were cultured in DMEM, supplemented with 5% fetal bovine serum, 100 units/mL of penicillin, 100 μg/mL of streptomycin, 2 mM L-glutamine, and 1 mM non-essential amino acids in a 10-cm plate at a density of 1 × 10^6 cells/mL, at 37 °C in a humidified atmosphere containing 5% CO2.
Nitrite was measured by adding 100 μL of the Griess reagent (1% sulfanilamide and 0.1% N-(1-naphthyl)ethylenediamine dihydrochloride in 5% phosphoric acid) to 100 μL of medium for 5 min. The optical density at 550 nm (OD550) was measured with a microplate reader. Concentrations were calculated by comparison with the OD550 of a standard solution of sodium nitrite prepared in culture medium.

[2] = system: RAW 264.7 cells; assay: Cell viability (XTT method) of RAW 264.7 cells; format: cell-based; conditions: compound 10 μM, 24 h, means ± S.D.
Procedure: To evaluate whether the suppressive effect of compounds on NO production is related to cell viability, Raw 264.7 cells were treated with LPS for 24 h, and washed with 500 μL of phosphate buffer solution (PBS) before resuspended in 1 mL of culture medium. Cell viability tests were run in parallel with NO production assays with an initial cell density of 5 × 10^3 cells/well in the presence or absence of test compounds at 10 μM or 0.1% DMSO as control.

[3] = NO-scavenging activity (sodium nitroprusside, nitrite by Griess reaction); conditions: SNP 2.5 mM, compound 10 μM, light, room temperature, 60 min
Procedure: NO-scavenging effects of pyrazolo[4,3-c]quinolines 2i and 2m were measured according to the reported method. Sodium nitroprusside (SNP) (2.5 mM) was incubated alone or in combination with tested compound (10 μM) or 1400W(10 μM) in light at room temperature for 60 min.
To understand the inhibitory effects of compounds 2i and 2m on NO production, sodium nitroprusside (SNP) was freshly prepared at […] in PBS was incubated alone or in combination with 10 µM of the different compounds. SNP is an inorganic complex where NO is found as NO^+ and light irradiation is necessary for the release of NO. Therefore, incubation mixtures were incubated in light at room temperature, and nitrite levels were determined after 60 min by Griess reaction.
Figure 1 NO-scavenging effects of 1400W, compounds 2i and 2m. SNP solution (2.5 mM) in PBS was incubated alone or with tested compound (10 μM) or 1400W (10 μM) in the presence of light at room temperature for 60 min.

[4] = system: iNOS protein expression; assay: LPS-induced iNOS protein expression in RAW 264.7 cells (western blot); format: cell-based, murine; conditions: pretreated 2 h, LPS 0.1 μg/mL 24 h
Procedure: (§1) The effects of compounds 2i and 2m on iNOS and COX-2 protein expression in LPS stimulated Raw 264.7 cell were assessed by western blot. Briefly, Raw 264.7 cells were pretreated with tested compound for 2 h before stimulation in the presence or absence of LPS (0.1 μg/mL). Cells were harvested and lysed with RIPA lysis buffer (50 mM Tris–Cl, pH 8.0, 150 mM NaCl, 0.1% SDS, 0.5% NP-40, 1% sodiumdeoxycholate, 1 mM phenylmethyl-sulfonylfluoride, 1 mM EDTA, no added proteinase) at 24 h after treatment. The total protein concentration in the cell lysates was measured according to the method described by Bradford. Equal amounts (15 μg) of protein were loaded and separated by using 8% SDS–PAGE and analyzed by western blot (ECL Amersham, Bensheim, Germany). The relative expression of proteins was quantified densitometrically using the software LabWorks 4.5 and was normalized againstβ-actin.
(§2) Figure 2 Inhibition of iNOS expression by 2i and 2m in LPS-stimulated RAW 264.7 cells. Cells (5 × 10^5 cells/well) were pretreated with the indicated concentrations of tested compounds for 2 h before incubation with 0.1 μg/mL LPS for 24 h. Cell lysates were then prepared and western blots were performed using an antibody specific for murine iNOS.

[5] = system: iNOS mRNA expression; assay: LPS-induced iNOS mRNA expression in RAW 264.7 cells (RT-PCR); format: cell-based; conditions: pretreated 2 h, LPS 0.1 μg/mL
Text: Total RNA was extracted by Trizol-Reagent (Invirogen, Carlsbad, CA, USA) according to the manufacturer’s manual. One microgram of RNA was used for the reverse transcription of first strand cDNA using the oligo dT primers. Five microliters of cDNA were used for the amplification of iNOS and GAPDH (glyceraldehyde 3-phosphate dehydrogenase) mRNA expression. The primers for rat iNOS are as follows, forward: 5′-ACTGCGTCGCTTCATTAGGT-3′ and reverse: 5′-TAGGCAAGCGCTTTACCACT-3′. The primers for rat glyceraldehydes 3-phosphate dehydrogenase are as follows, forward: 5′-ATGGCACAGTCAAGGCTGAGA-3′ reverse: 5′-AGACGCCAGTAGACTCCACGAC-3′. The amplicons were electrophoresed on a 3% agarose gel and band intensities were measured using a spectrophotometer (Thermo Fisher Scientific, Waltham, MA, USA) and normalized against GAPDH.
Figure 3 Inhibitory effects of compound 2i and 2m on LPS-induced iNOS mRNA expression. Cells (5 × 10^5 cells/well) were pretreated with the indicated concentrations of tested compounds for 2 h before incubation with 0.1 μg/mL LPS for 9 h. Total RNA was prepared for RT-PCR analysis of iNOS mRNA expression in LPS-stimulated RAW 264.7 cells. GAPDH were used as internal controls for the RT-PCR assays3.4. Inhibition of LPS-inducible COX-2 expression.

[6] = system: COX-2 protein expression; assay: LPS-inducible COX-2 protein expression in RAW 264.7 cells (western blot); format: cell-based, murine; conditions: pretreated 2 h, LPS 0.1 μg/mL 24 h
Procedure: as §1
as §2, with “Figure 4” for “Figure 2”, “of COX-2” for “of iNOS”, “by compound” for “by”, “murine COX-2.” for “murine iNOS.”

`Nc1n[nH]c2c1c(Nc1ccc(O)cc1)nc1ccccc12` [Compound 2i, 3-amino-4-(4-hydroxyphenylamino)-1H-pyrazolo[4,3-c]-quinoline] showed an IC50 ([1]; RAW264.7, 24 h, RAW 264.7 cells, LPS 0.1 μg/mL 24 h, means ± S.D., read-out: IC50 (inhibition of LPS-induced NO production)) of 190 ± 50 nM, an IC50 ([1]; RAW264.7, training dataset, negative logarithm of IC50 values, read-out: Observed pIC50 (converted)) of 190 nM and an inhibition at 10 µM ([1]; RAW264.7, RAW 264.7 cells, LPS 0.1 μg/mL 24 h, compound 10 μM, means ± S.D., read-out: Percent Inhibition of NO Production at 10 μM) of 102 ± 2.63%. For the same molecule, the “Cell Survival Rate at 10 μM” value [2] was 87.84 ± 0.15%, the “NO-scavenging effect (levels of nitrite from SNP)” value [3] was “did not affect the levels of nitrite” and the “Inhibition of LPS-induced iNOS protein expression” value [4] was “more potent inhibitory activities than 2m”. For the same molecule, the “Inhibition of LPS-stimulated iNOS mRNA expression” value [5] was “inhibited the LPS-stimulated iNOS mRNA production in a dose-dependent manner” and the “Inhibition of LPS-induced COX-2 protein expression” value [6] was “effectively suppressed the induction of COX-2 protein expression by LPS”.
